Measurements as given in PubChem BioAssay AID1259407 (Chemical Carcinogenesis Research Information System (CCRIS), 2018).
Active and inactive are the calls of the source. The rule behind the calls is not given here.

System: CCRIS mutagenicity, Ames/micronucleus/aberration tests
Assay: CCRIS mutagenicity studies
[1] = Test System: AMES SALMONELLA TYPHIMURIUM, Strain/Indicator: TA97, Metabolic Activation: HAMSTER, LIVER, S-9, AROCLOR 1254 (10%), Method: PREINCUBATION
[2] = Test System: AMES SALMONELLA TYPHIMURIUM, Strain/Indicator: TA97, Metabolic Activation: HAMSTER, LIVER, S-9, AROCLOR 1254 (30%), Method: PREINCUBATION
[3] = Test System: AMES SALMONELLA TYPHIMURIUM, Strain/Indicator: TA97, Metabolic Activation: NONE, Method: PREINCUBATION
[4] = Test System: AMES SALMONELLA TYPHIMURIUM, Strain/Indicator: TA97, Metabolic Activation: RAT, LIVER, S-9, AROCLOR 1254 (10%), Method: PREINCUBATION
[5] = Test System: AMES SALMONELLA TYPHIMURIUM, Strain/Indicator: TA97, Metabolic Activation: RAT, LIVER, S-9, AROCLOR 1254 (30%), Method: PREINCUBATION
[6] = Test System: AMES SALMONELLA TYPHIMURIUM, Strain/Indicator: TA98, Metabolic Activation: HAMSTER, LIVER, S-9, AROCLOR 1254 (30%), Method: PREINCUBATION
[7] = Test System: AMES SALMONELLA TYPHIMURIUM, Strain/Indicator: TA98, Metabolic Activation: NONE, Method: PREINCUBATION
[8] = Test System: AMES SALMONELLA TYPHIMURIUM, Strain/Indicator: TA98, Metabolic Activation: RAT, LIVER, S-9, AROCLOR 1254 (30%), Method: PREINCUBATION
[9] = Test System: AMES SALMONELLA TYPHIMURIUM, Strain/Indicator: TA100, Metabolic Activation: HAMSTER, LIVER, S-9, AROCLOR 1254 (10%), Method: PREINCUBATION
[10] = Test System: AMES SALMONELLA TYPHIMURIUM, Strain/Indicator: TA100, Metabolic Activation: HAMSTER, LIVER, S-9, AROCLOR 1254 (30%), Method: PREINCUBATION
[11] = Test System: AMES SALMONELLA TYPHIMURIUM, Strain/Indicator: TA100, Metabolic Activation: NONE, Method: PREINCUBATION
[12] = Test System: AMES SALMONELLA TYPHIMURIUM, Strain/Indicator: TA100, Metabolic Activation: RAT, LIVER, S-9, AROCLOR 1254 (10%), Method: PREINCUBATION
[13] = Test System: AMES SALMONELLA TYPHIMURIUM, Strain/Indicator: TA100, Metabolic Activation: RAT, LIVER, S-9, AROCLOR 1254 (30%), Method: PREINCUBATION
[14] = Test System: AMES SALMONELLA TYPHIMURIUM, Strain/Indicator: TA1535, Metabolic Activation: HAMSTER, LIVER, S-9, AROCLOR 1254 (10%), Method: PREINCUBATION
[15] = Test System: AMES SALMONELLA TYPHIMURIUM, Strain/Indicator: TA1535, Metabolic Activation: HAMSTER, LIVER, S-9, AROCLOR 1254 (30%), Method: PREINCUBATION
[16] = Test System: AMES SALMONELLA TYPHIMURIUM, Strain/Indicator: TA1535, Metabolic Activation: NONE, Method: PREINCUBATION
[17] = Test System: AMES SALMONELLA TYPHIMURIUM, Strain/Indicator: TA1535, Metabolic Activation: RAT, LIVER, S-9, AROCLOR 1254 (10%), Method: PREINCUBATION
[18] = Test System: AMES SALMONELLA TYPHIMURIUM, Strain/Indicator: TA1535, Metabolic Activation: RAT, LIVER, S-9, AROCLOR 1254 (30%), Method: PREINCUBATION
[19] = Test System: AMES SALMONELLA TYPHIMURIUM, Strain/Indicator: TA98, Metabolic Activation: HAMSTER, LIVER, S-9, AROCLOR 1254 (10%), Method: PREINCUBATION
[20] = Test System: AMES SALMONELLA TYPHIMURIUM, Strain/Indicator: TA98, Metabolic Activation: RAT, LIVER, S-9, AROCLOR 1254 (10%), Method: PREINCUBATION

With `CCN(CC)c1ccc(N=O)c(O)c1` the mutagenic call [1] was “inactive; negative”, the mutagenic call [2] was “inactive; negative” and the mutagenic call [3] was “inactive; negative”. The mutagenic call [4] was “inactive; negative”, the mutagenic call [5] was “inactive; negative” and the mutagenic call (Test System: AMES SALMONELLA TYPHIMURIUM, Strain/Indicator: TA98, Metabolic Activation: HAMSTER, LIVER, S-9, AROCLOR 1254 (5 OR 10%), Method: PREINCUBATION) was “inactive; negative”. For the same compound, the mutagenic call [6] was “inactive; negative”, the mutagenic call [7] was “inactive; negative” and the mutagenic call (Test System: AMES SALMONELLA TYPHIMURIUM, Strain/Indicator: TA98, Metabolic Activation: RAT, LIVER, S-9, AROCLOR 1254 (5 OR 10%), Method: PREINCUBATION) was “inactive; negative”. The mutagenic call [8] was “inactive; negative”, the mutagenic call [9] was “inactive; negative” and the mutagenic call [10] was “inactive; negative”. For the same compound, the mutagenic call [11] was “inactive; negative”, the mutagenic call [12] was “inactive; negative” and the mutagenic call [13] was “inactive; negative”. The mutagenic call [14] was “inactive; negative”, the mutagenic call [15] was “inactive; negative” and the mutagenic call [16] was “inactive; negative”. The mutagenic call [17] was “inactive; negative”, the mutagenic call [18] was “inactive; negative” and the mutagenic call (Test System: AMES SALMONELLA TYPHIMURIUM, Strain/Indicator: TA1537, Metabolic Activation: HAMSTER, LIVER, S-9, AROCLOR 1254 (30%), Method: PREINCUBATION) was “inactive; negative”. For the same compound, the mutagenic call (Test System: AMES SALMONELLA TYPHIMURIUM, Strain/Indicator: TA1537, Metabolic Activation: NONE, Method: PREINCUBATION) was “inactive; negative”, the mutagenic call (Test System: AMES SALMONELLA TYPHIMURIUM, Strain/Indicator: TA1537, Metabolic Activation: RAT, LIVER, S-9, AROCLOR 1254 (30%), Method: PREINCUBATION) was “inactive; negative” and the mutagenic call (Test System: AMES SALMONELLA TYPHIMURIUM, Strain/Indicator: TA1538, Metabolic Activation: HAMSTER, LIVER, S-9, AROCLOR 1254 (10%), Method: PREINCUBATION) was “inactive; negative”. For the same compound, the mutagenic call (Test System: AMES SALMONELLA TYPHIMURIUM, Strain/Indicator: TA1538, Metabolic Activation: HAMSTER, LIVER, S-9, AROCLOR 1254 (30%), Method: PREINCUBATION) was “inactive; negative”, the mutagenic call (Test System: AMES SALMONELLA TYPHIMURIUM, Strain/Indicator: TA1538, Metabolic Activation: NONE, Method: PREINCUBATION) was “inactive; negative” and the mutagenic call (Test System: AMES SALMONELLA TYPHIMURIUM, Strain/Indicator: TA1538, Metabolic Activation: RAT, LIVER, S-9, AROCLOR 1254 (10 OR 30%), Method: PREINCUBATION) was “inactive; negative”.
`Nc1ccc(F)cc1F` was tested, and the mutagenic call [1] was “inactive; negative”, the mutagenic call [2] was “inactive; negative” and the mutagenic call [3] was “inactive; negative”. The mutagenic call [4] was “inactive; negative”, the mutagenic call [5] was “inactive; negative” and the mutagenic call [19] was “inactive; negative”. The mutagenic call [6] was “active; positive”, the mutagenic call [7] was “inactive; negative” and the mutagenic call [20] was “inactive; negative”. For the same compound, the mutagenic call [8] was “inactive; negative”, the mutagenic call (Test System: AMES SALMONELLA TYPHIMURIUM, Strain/Indicator: TA100, Metabolic Activation: HAMSTER, LIVER, S-9, AROCLOR 1254 (5 OR 10%), Method: PREINCUBATION) was “inactive; negative” and the mutagenic call [10] was “active; positive”. For the same compound, the mutagenic call [11] was “inactive; negative”, the mutagenic call (Test System: AMES SALMONELLA TYPHIMURIUM, Strain/Indicator: TA100, Metabolic Activation: RAT, LIVER, S-9, AROCLOR 1254 (5, 10 OR 30%), Method: PREINCUBATION) was “inactive; negative” and the mutagenic call [14] was “inactive; negative”. The mutagenic call [15] was “inactive; negative”, the mutagenic call [16] was “inactive; negative” and the mutagenic call [17] was “inactive; negative”. The mutagenic call [18] was “inactive; negative”.
In the case of `C=C(C)c1ccccc1`, the mutagenic call (End Point: In vitro chromosomal aberrations, Test System: Chinese Hamster ovary (CHO) cells, Metabolic Activation: None) is reported as “inactive; negative”, the mutagenic call (End Point: In vitro chromosomal aberrations, Test System: Chinese Hamster ovary (CHO) cells, Metabolic Activation: Rat, Liver, S-9, Aroclor 1254) is reported as “inactive; negative” and the mutagenic call (End Point: In vivo micronucleus, Test System: Peripheral blood normochromatic erythrocytes, Species: Mouse, Strain/Sex: B6C3F1/ Female, Route: Inhalation) is reported as “active; positive”. The mutagenic call (End Point: In vivo micronucleus, Test System: Peripheral blood normochromatic erythrocytes, Species: Mouse, Strain/Sex: B6C3F1/ Male, Route: Inhalation) was “active; positive”, the mutagenic call (Test System: AMES SALMONELLA TYPHIMURIUM, Strain/Indicator: TA97, Metabolic Activation: HAMSTER, LIVER, S-9, AROCLOR 1254 (10 OR 30%), Method: PREINCUBATION) was “inactive; negative” and the mutagenic call [3] was “inactive; negative”. For the same compound, the mutagenic call (Test System: AMES SALMONELLA TYPHIMURIUM, Strain/Indicator: TA97, Metabolic Activation: RAT, LIVER, S-9, AROCLOR 1254 (10 OR 30%), Method: PREINCUBATION) was “inactive; negative”, the mutagenic call [19] was “inactive; negative” and the mutagenic call [6] was “inactive; negative”. The mutagenic call [7] was “inactive; negative”, the mutagenic call [20] was “inactive; negative” and the mutagenic call [8] was “inactive; negative”. For the same compound, the mutagenic call [9] was “inactive; negative”, the mutagenic call [10] was “inactive; negative” and the mutagenic call [11] was “inactive; negative”. The mutagenic call [12] was “inactive; negative”, the mutagenic call [13] was “inactive; negative” and the mutagenic call (Test System: AMES SALMONELLA TYPHIMURIUM, Strain/Indicator: TA1535, Metabolic Activation: HAMSTER, LIVER, S-9, AROCLOR 1254 (10 OR 30%), Method: PREINCUBATION) was “inactive; negative”. The mutagenic call [16] was “inactive; negative” and the mutagenic call (Test System: AMES SALMONELLA TYPHIMURIUM, Strain/Indicator: TA1535, Metabolic Activation: RAT, LIVER, S-9, AROCLOR 1254 (10 OR 30%), Method: PREINCUBATION) was “inactive; negative”.
